Results published in patent US11846638B2, “Methods for detecting Na/K-ATPase-mediated Src signaling for diagnosis and prognosis of cancer” (Marshall University Research Corporation, priority 2017, dated 2023).
“Also recorded” adds a separate entry of the source.

What was measured:
AAC-19 and Y260A cells [1] = test: Extracellular acidification rate (ECAR), Seahorse, in AAC-19 and Y260A cells; assay type: cell-based, porcine; conditions: for ECAR after oligomycin (maximal capacity of glycolysis): after addition of glucose
Protocol: Bioenergetics. Properties of cellular bioenergetics were characterized using Seahorse XFp Extracellular Flux Analyzer by measuring oxygen consumption rate (OCR) and extracellular acidification rate (ECAR) following the guidelines provided by the manufacturer. Prior to the start of Seahorse assay, optimal FCCP concentration for each cell line was determined by titration studies. Unless indicated otherwise, 10,000 cells per well were seeded with culture medium. Bicarbonate-free medium (Agilent Technologies) with different substrates (10 mM glucose, 2 mM glutamine and 1 mM pyruvate for Cell Mito Stress Test assays; 2 mM glutamine for Glycolysis Stress Test assays) was replaced one hour prior to the assay. Baseline OCR and ECAR rates were measured three times before various inhibitors, stimulants, substrates, or compounds were added through the drug delivery ports. In the PP2 study, cells were pretreated with 5 μM PP2 for 4 h and then analyzed.

AAC-19 and Y260A cells [2] = test: Cellular ATP content (CellTiter-Glo) under glycolysis inhibition; assay type: cell-based, porcine; conditions: Y260A cells compared to AAC-19 cells; 2-DG 45 minutes in serum-free DMEM
Protocol: (§1) Biochemical measurement of ATP and lactate. ATP measurements were performed using CellTiter-Glo Luminescent Cell Viability Assay kit. 10,000 cells per well were cultured in 96-well culture plate. After treatment with 2-DG at indicated concentrations in serum-free DMEM for 45 minutes, assay reagents were reconstituted and added into culture plate. Luminescent counts of the reactants were determined from an opaque-walled 96-well plate with a microplate reader. Lactate measurement was done by colorimetric methods as described by previously. In PP2 study, culture medium containing serum and 5 μM PP2 was replaced in culture dish and collected after 4 hours for measurements.

[3] = system: α1 Na/K-ATPase Y10 phosphorylation; test: Y10 phosphorylation of α1 Na/K-ATPase in LLC-PK1 cells (immunoblot); assay type: cell-based, porcine
Protocol: (§2) Cell culture and cell line generation. All cell lines were purchased from and maintained according to ATCC (Manassas, Va.). LLC-PK1 was serum starved before being used for signaling experiments. AAC-19, Y260A and DU145, A4-7 cell lines were cultured in the presence of 0.5% and 1% serum respectively for 24 hours before being used for the signaling experiments. LLC-PK1 cells were transfected (Lipofectamine 2000) with pEYFP-C1 vector containing α1 CD2, α2 CD2 or pEYFP-C1 empty vector. After verifying YFP expression visually, the cells were selected with 1 mg/ml G418 for one week. G418 resistant clones were selected and expanded. Cells were then cultured without G418 for at least three generations before being used for experiments. CD2N and CD2C cells were generated in similar manner. Y260A cells were generated by transfecting PY-17 cells with pRC/CMV-α1 AACm1 vector harboring mutation at Y260 and selected with ouabain (3 μM). Ouabain-resistant clones were isolated and expanded into stable cell lines. The cells were cultured for at least 3 generations without ouabain before being used for any experiment. […]
(§3) Immunoblot, Immunoprecipitation and Immunostaining Analysis. […] Intensity of bands were quantified with ImageJ software (NIH). […] Precipitated proteins were then analyzed as described previously. […]

[4] = system: α1 Na/K-ATPase Y260 phosphorylation; test: Y260 phosphorylation of α1 Na/K-ATPase in LLC-PK1 cells (immunoblot); assay type: cell-based, porcine
Protocol: (§4) Cell culture and cell line generation. All cell lines were purchased from and maintained according to ATCC (Manassas, Va.). LLC-PK1 was serum starved before being used for signaling experiments. AAC-19, Y260A and DU145, A4-7 cell lines were cultured in the presence of 0.5% and 1% serum respectively for 24 hours before being used for the signaling experiments. LLC-PK1 cells were transfected (Lipofectamine 2000) with pEYFP-C1 vector containing α1 CD2, α2 CD2 or pEYFP-C1 empty vector. After verifying YFP expression visually, the cells were selected with 1 mg/ml G418 for one week. G418 resistant clones were selected and expanded. Cells were then cultured without G418 for at least three generations before being used for experiments. CD2N and CD2C cells were generated in similar manner. Y260A cells were generated by transfecting PY-17 cells with pRC/CMV-α1 AACm1 vector harboring mutation at Y260 and selected with ouabain (3 μM). Ouabain-resistant clones were isolated and expanded into stable cell lines. The cells were cultured for at least 3 generations without ouabain before being used for any experiment. DU-P1, A4-7 and A4-3 cell lines were generated by transfecting DU145 cells with a α1 Na/K-ATPase-specific siRNA containing vector and selecting with Puromycin as described above. All constructs were verified by DNA sequencing.
(§5) Immunoblot, Immunoprecipitation and Immunostaining Analysis. Immunoblot assays were performed as described previously. Intensity of bands were quantified with ImageJ software (NIH). Immunoprecipitation was performed by adding 5 μg of anti-Src (Millipore Cat #05-184) antibody to 500 μg of cell lysate (1 μg/μl concentration) or 8 μg of anti-α1 Na/K-ATPase antibody (Millipore Cat #06-520) to 800 μg of cell lysate ([…] concentration). Precipitated proteins were then analyzed as described previously. For immunostaining antibodies used—anti-α1 Na/K-ATPase antibody (Millipore Cat #05-369) and Alexa Fluor 488-conjugated anti-mouse secondary antibody.

Y260A cells [5] = test: Lactate production in culture medium of Y260A cells; assay type: cell-based, porcine; conditions: 5 μM PP2 for 4 h
Protocol: as §1

ERK1/2 = test: ERK activation (pERK1/2/ERK1/2) by Western blot in AAC-19 and Y260A cells; assay type: cell-based, porcine; conditions: for ERK phosphorylation (pERK1/2/ERK1/2): different concentrations of ouabain for 10 minutes
Protocol: as §4, §5

A4-7 cells [6] = test: Lactate production in medium of A4-7 cells; assay type: cell-based, human; conditions: 5 μM PP2 for 4 h
Protocol: as §1

Y260A cells [7] = test: qPCR of upregulated metabolic genes in Y260A cells; assay type: cell-based, porcine; conditions: 5 μM PP2 overnight
Source text: RNA Extraction, cDNA Synthesis and Quantitative PCR. Total RNA was isolated with the QIAGEN RNeasy Mini Kit. The same amount of total RNA was used for synthesizing first-stand cDNA with the SuperScript III First-Stand Synthesis SuperMix for qRT-PCR (ThermoFisher). The cDNA from each sample was used as a template for the quantitative PCR (Syber green) with Roche LightCycler® 480 Real-Time PCR System. All primers were synthesized by Integrated DNA Technologies (IDT). β-actin was used as internal control.

A4-7 cells [8] = test: Cell proliferation of A4-7 cells; assay type: cell-based, human; conditions: PP2, 48 hours
Protocol: Cell growth assay and MTT assay. Cell growth assay and MTT assay were performed as previously described.

Akt = Akt activation (pS473Akt/Akt) by Western blot in AAC-19 and Y260A cells; assay type: cell-based, porcine; conditions: different concentrations of ouabain for 10 minutes
Protocol: as §2, §3

Src [9] = test: Src activation (pY418Src/c-Src) by Western blot in LLC-PK1, AAC-19 and Y260A cells; assay type: cell-based, porcine; conditions: for Src phosphorylation (pY418Src/c-Src): different concentrations of ouabain for 10 minutes
Protocol: as §4, §5

EGFR [10] = test: EGFR phosphorylation at Y845 in AAC-19 and Y260A cells; assay type: cell-based, porcine; conditions: AAC-19 cells; different concentrations of EGF
Protocol: as §2, §3

Src [11] = test: Src activation (pY418 Src/c-Src) by Western blot in DU-P1 and A4-7 cells; assay type: cell-based, human; conditions: different concentrations of EGF for 5 minutes
Protocol: as §2, §3

EGFR [12] = test: EGFR activation (pY845 EGFR/EGFR) by Western blot in DU-P1 and A4-7 cells; assay type: cell-based, human; conditions: different concentrations of EGF for 5 minutes
Protocol: as §2, §3

In the case of O=CC[C@@H](O)[C@H](O)[C@H](O)CO [2-DG, 2-deoxyglucose], the “ECAR after 2-DG” value (AAC-19 and Y260A cells [1]; AAC-19 and Y260A cells, after glucose and oligomycin) is reported as “completely reversed the increase” and the “cellular ATP content in response to inhibition of glycolysis” value (AAC-19 and Y260A cells [2]) is reported as “much more sensitive”.

CC(C)(C)n1nc(-c2ccc(Cl)cc2)c2c(N)ncnc21 [PP2] was tested, and the Y10 phosphorylation ([3]; PP2 5 μM, 30 minutes) was “Neither inhibitor nor knockout of Src kinase affected”, the Y260 phosphorylation ([4]; PP2 5 μM, 30 minutes pretreatment) was “attenuated” and the lactate production (Y260A cells [5]) was “sufficient to reduce; also recorded: blocked the increase”. The “basal ERK activities (increased in Y260A cells)” value (ERK1/2; Y260A cells, PP2) was “sensitive to PP2; also recorded: sensitive to Src inhibitor”, the “lactate production (increased in A4-7 cells)” value (A4-7 cells [6]) was “sensitive to Src inhibition” and the “glycolysis rate (ECAR)” value (AAC-19 and Y260A cells [1]; Y260A cells, 5 μM PP2 for 4 h) was “sufficient to reduce”. For the same compound, the “mRNA level of upregulated glycolytic/metabolic genes” value (Y260A cells [7]) was “restored the mRNA level of most of these upregulated genes; also recorded: reduced the expression” and the cell proliferation rate (A4-7 cells [8]) was “reversed; also recorded: inhibition”.

With CC[C@H]1/C=C/C=C/C[C@@H](C)[C@H](O)[C@@](C)(O)C(=O)[C@@H](C)[C@H](O)[C@@H](C)C(=O)[C@@H](C)[C@H](O)[C@@H](C)/C=C/C(=O)O[C@@H]2[C@H](C)[C@H](CC1)O[C@]1(CC[C@H](C)[C@H](C[C@@H](C)O)O1)[C@H]2C [oligomycin] the “ECAR after oligomycin (maximal capacity of glycolysis)” value (AAC-19 and Y260A cells [1]; AAC-19 cells) was “further increase” and the “ECAR after oligomycin (maximal capacity of glycolysis)” value (AAC-19 and Y260A cells [1]; Y260A cells) was “not in Y260A cells”.

C[C@@H]1O[C@@H](O[C@H]2C[C@@H](O)[C@]3(CO)[C@H]4[C@H](O)C[C@]5(C)[C@@H](C6=CC(=O)OC6)CC[C@]5(O)[C@@H]4CC[C@]3(O)C2)[C@H](O)[C@H](O)[C@H]1O [ouabain] was tested, and the “Akt phosphorylation (pS473Akt/Akt)” value (Akt; AAC-19 cells) was “stimulated”, the “Akt phosphorylation (pS473Akt/Akt)” value (Akt; Y260A mutant cells) was “abolished” and the Y10 phosphorylation ([3]; ouabain) was “no effect”. The Y260 phosphorylation ([4]; ouabain, function of time and concentration) was “increased”, the “ERK phosphorylation (pERK1/2/ERK1/2)” value (ERK1/2; AAC-19 cells) was “stimulated” and the “ERK phosphorylation (pERK1/2/ERK1/2)” value (ERK1/2; Y260A mutant cells) was “abolished”. The “ouabain-induced ERK activation (pERK1/2/ERK 1/2)” value (ERK1/2; Y260A mutant clone 24 cells) was “failed to respond”, the “Src phosphorylation (pY418Src/c-Src)” value (Src [9]; AAC-19 cells) was “stimulated” and the “Src phosphorylation (pY418Src/c-Src)” value (Src [9]; Y260A mutant cells) was “abolished”.

With “EGF: recombinant EGF, stimulates EGFR/Src signaling” the “phosphorylation of EGFR at Y845” value (EGFR [10]) was “stimulated”, the “Src activation (pY418 Src/c-Src)” value (Src [11]; A4-7 cells) was “not in A4-7 cells” and the “Src activation (pY418 Src/c-Src)” value (Src [11]; DU-P1 cells) was “able to stimulate”. The “Y260 phosphorylation of Na/K-ATPase” value ([4]; recombinant EGF, time and dose) was “time- and dose-dependent stimulation”, the “Y845 phosphorylation of EGFR” value (EGFR [12]; A4-7 cells) was “not in A4-7 cells” and the “Y845 phosphorylation of EGFR” value (EGFR [12]; DU-P1 cells) was “able to stimulate”. The Src kinase activity (Src [9]; AAC-19 cells, different concentrations of EGF) was “stimulated” and the “Src phosphorylation at Y418” value (Src [9]; LLC-PK1 cells, recombinant EGF, time and dose) was “time- and dose-dependent stimulation”.
